Data from ChEMBL document CHEMBL4196018, “New antitumor anthra[2,3-b]furan-3-carboxamides: Synthesis and structure-activity relationship” (Eur J Med Chem, 2018).
Calls of active or inactive are those of the source. The rule behind the calls is not given here.

Experiments:
L1210 = experiment: Antiproliferative activity against mouse L1210 cells after 48 hrs by MTT assay; format: functional, cell-based; details: L1210, 48 h
CCRF-CEM = experiment: Antiproliferative activity against human CEM cells after 72 hrs by MTT assay; format: functional, cell-based
HeLa = experiment: Antiproliferative activity against human HeLa cells after 72 hrs by MTT assay; format: functional, cell-based
HCT-116 [1] = experiment: Antiproliferative activity against human HCT116 cells after 72 hrs by MTT assay; format: functional, cell-based; details: HCT-116, 72 h
HCT-116 [2] = experiment: Antiproliferative activity against p53 knockout human HCT116 cells after 72 hrs by MTT assay; format: functional, cell-based; details: HCT-116, 72 h
[3] = Resistance index, ratio of IC50 for p53 knockout human HCT116 cells to IC50 for human HCT116 cells; format: functional
K562 [4] = experiment: Antiproliferative activity against human K562 cells after 72 hrs by MTT assay; format: functional, cell-based; details: K562, 72 h
[5] = Antiproliferative activity against human K562/4 cells after 72 hrs by MTT assay; format: functional, cell-based; details: K562/4, 72 h
[6] = Resistance index, ratio of IC50 for human K562/4 cells to IC50 for human K562 cells; format: functional
Lymphocyte = experiment: Cytotoxicity against human lymphocytes assessed as reduction in cell viability at 25 uM after 72 hrs by MTT assay; format: cell-based
[7] = Substrate activity at P-gp in human K562/4 cells assessed as test compound accumulation at 2 uM after 1 to 24 hrs by flow cytometry; format: ADME, cell-based
[8] = Drug uptake in human K562 cells at 2 uM after 1 to 24 hrs by flow cytometry; format: ADME, cell-based; details: k562, 2 µM
[9] = biological target: T1, DNA topoisomerase 1 (Homo sapiens) (UniProt P11387); experiment: Inhibition of human topoisomerase-1 at 10 uM using supercoiled pBR322 DNA as substrate after 30 mins by agarose gel electrophoresis method
T1 sequence (whole entry): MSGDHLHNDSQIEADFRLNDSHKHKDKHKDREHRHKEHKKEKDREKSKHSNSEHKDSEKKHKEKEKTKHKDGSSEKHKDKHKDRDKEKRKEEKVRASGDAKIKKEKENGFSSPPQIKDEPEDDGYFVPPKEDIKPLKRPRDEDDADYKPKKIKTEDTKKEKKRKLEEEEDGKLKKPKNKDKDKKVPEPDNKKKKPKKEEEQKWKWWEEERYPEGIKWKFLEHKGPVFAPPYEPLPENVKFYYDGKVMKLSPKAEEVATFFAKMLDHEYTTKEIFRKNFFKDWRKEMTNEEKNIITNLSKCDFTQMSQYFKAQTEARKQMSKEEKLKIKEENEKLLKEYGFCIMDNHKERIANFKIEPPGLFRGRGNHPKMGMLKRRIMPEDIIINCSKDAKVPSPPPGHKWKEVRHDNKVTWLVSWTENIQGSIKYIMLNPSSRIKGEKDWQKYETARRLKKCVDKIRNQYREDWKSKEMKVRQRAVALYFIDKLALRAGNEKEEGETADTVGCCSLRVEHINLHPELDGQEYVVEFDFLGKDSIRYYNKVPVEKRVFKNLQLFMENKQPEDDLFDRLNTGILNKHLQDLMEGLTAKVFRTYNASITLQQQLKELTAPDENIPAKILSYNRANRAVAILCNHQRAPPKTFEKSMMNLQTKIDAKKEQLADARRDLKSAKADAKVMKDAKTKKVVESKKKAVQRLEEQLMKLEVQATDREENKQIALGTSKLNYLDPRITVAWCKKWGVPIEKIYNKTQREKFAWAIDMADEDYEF

K562 [10] = experiment: Cell cycle arrest in human K562 cells assessed as accumulation at G2/M phase at 1 uM after 24 hrs by propidium iodide staining based flow cytometry; format: functional
Homo sapiens = species on record: Homo sapiens; experiment: Cell cycle arrest in human K562/4 cells assessed as accumulation at G2/M phase at 1 uM after 24 hrs by propidium iodide staining based flow cytometry; format: functional
K562 [11] = experiment: Cell cycle arrest in human K562 cells assessed as accumulation at sub-G1 phase at 1 uM up to 48 hrs by propidium iodide staining based flow cytometry relative to control; format: functional
[12] = Cell cycle arrest in human K562/4 cells assessed as accumulation at sub-G1 phase at 1 uM up to 48 hrs by propidium iodide staining based flow cytometry relative to control; format: functional
MKN-45 [13] = experiment: Induction of ROS generation in human MKN45 cells at 0.1 to 1 uM after 30 mins by H2DCFDA staining based flow cytometry; format: functional, cell-based
TMK-1 [14] = experiment: Induction of ROS generation in human TMK1 cells at 0.1 to 1 uM after 30 mins by H2DCFDA staining based flow cytometry; format: functional, cell-based
MKN-45 [15] = experiment: Induction of apoptosis in human MKN45 cells after 24 hrs by Annexin V-FITC staining based flow cytometry; format: functional, cell-based
TMK-1 [16] = experiment: Induction of apoptosis in human TMK1 cells after 24 hrs by Annexin V-FITC staining based flow cytometry; format: functional, cell-based
MKN-45 [17] = experiment: Induction of apoptosis in human MKN45 cells at 1 uM after 24 hrs by Annexin V-FITC staining based flow cytometry relative to control; format: functional
TMK-1 [18] = experiment: Induction of apoptosis in human TMK1 cells at 1 uM after 24 hrs by Annexin V-FITC staining based flow cytometry relative to control; format: functional

O=C1c2ccccc2C(=O)c2c1c(O)c1occ(C(=O)NC3CCCNC3)c1c2O (racemic)
IC50 (L1210): 700 nM | IC50 (CCRF-CEM): 900 nM | IC50 (HeLa): 700 nM | IC50 (HCT-116 [1]): 600 nM | IC50 (HCT-116 [2]): 800 nM | Ratio IC50 [3]: 1.3 | IC50 (K562 [4]): 600 nM | IC50 [5]: 1200 nM | Ratio IC50 [6]: 2.1 | Activity (Lymphocyte): Non-Toxic | Activity [7]: Not Active | Drug uptake [8]: Active | inhibition [9]: Active | Activity (K562 [10]): Active | Activity (Homo sapiens): Active | Activity (K562 [11]): >70% | Activity [12]: >70% | Activity (MKN-45 [13]): Active | Activity (TMK-1 [14]): Active | Activity (MKN-45 [15]): Dose-dependent effect | Activity (TMK-1 [16]): Dose-dependent effect | Activity (MKN-45 [17]): 60 - 90% | Activity (TMK-1 [18]): 60 - 90%
